What was measured:
Staphylococcus aureus [1] = experiment: MIC on growth of Staphylococcus aureus in nutrient solution (ISB), microtitre plates, turbidity; assay type: cell-based; details: for MIC: Staphylococcus aureus, read-out: average MIC (+standard deviation)
Procedure: (§1) The sensitivity tests and the experiments carried out with combinations of active agents—using the so-called Checkerboard design—in broth (nutrient medium) and milk, were carried out using microtitre plates. Three capsule-positive and three capsule-negative strains of Staphylococcus aureus were used. The so-called MIC value was determined by fluorometric methods (in milk).
(§2) The concentration of the standard solution of the tea tree oil used was 4% vol/vol.
(§3) The highest concentration used in the tests was 1/10th of the original standard solution, i.e. 0.4 vol-%.
1 Effect of tea tree oil (Ttoil) on the growth of Staphylococcus aureus in nutrient solution (ISB).
The results are given as the average minimum inhibitory concentration from four repeats
(§4) 3 Susceptibility of Staphylococcus aureus to selected antibacterial agents in nutrient medium (ISB) and milk. […] Each strain was tested […].

Staphylococcus aureus [2] = experiment: MIC on growth of Staphylococcus aureus in milk, microtitre plates, fluorometric; assay type: cell-based; details: for MIC: Staphylococcus aureus, read-out: average MIC (+standard deviation)
Procedure: as §1, §2, §3
2 Effect of tea tree oil on the growth of Staphylococcus aureus in normal milk. Each strain was tested four times.
as §4

[3] = three capsule negative Staph. aureus strains
[4] = three capsule positive Staph. aureus strains

| Compound | MIC (Staphylococcus aureus [1]; [3]) [µg/mL] | MIC (Staphylococcus aureus [1]; [4]) [µg/mL] | MIC (Staphylococcus aureus [2]; [3]) [µg/mL] | MIC (Staphylococcus aureus [2]; [4]) [µg/mL] | MIC range (in brackets) (Staphylococcus aureus [1]; [3]) | MIC range (in brackets) (Staphylococcus aureus [1]; [4]) | MIC range (in brackets) (Staphylococcus aureus [2]; [3]) | average MIC (+standard deviation) (Staphylococcus aureus [1]; [3]) [µg/mL] | average MIC (+standard deviation) (Staphylococcus aureus [1]; [4]) [µg/mL] | average MIC (+standard deviation) (Staphylococcus aureus [2]; [3]) [µg/mL] | MIC range (in brackets) (Staphylococcus aureus [2]; [4]) | average MIC (+standard deviation) (Staphylococcus aureus [2]; [4]) [µg/mL] |
| --- | --- | --- | --- | --- | --- | --- | --- | --- | --- | --- | --- | --- |
| CC1(C)S[C@@H]2[C@H](NC(=O)[C@H](N)c3ccccc3)C(=O)N2[C@H]1C(=O)O [Ampicillin, ampicillin] | 0.198 ± 0.018 | 0.188 ± 0.019 | 0.104 ± 0.009 | 0.12 ± 0.005 |  |  |  |  |  |  |  |  |
| CC(=O)OCC1=C(C(=O)O)N2C(=O)[C@@H](NC(=O)Cc3cccs3)[C@H]2SC1 [Cephalothin, cephalothin] | 0.188 ± 0.019 | 0.188 ± 0.019 | 0.167 ± 0.018 | 0.25 | (0.125-0.25) μg/ml | (0.125-0.25) μg/ml | (0.125-0.25) μg/ml |  |  |  |  |  |
| CC1(C)S[C@@H]2[C@H](NC(=O)Cc3ccccc3)C(=O)N2[C@H]1C(=O)O [Penicillin G, penicillin G] |  |  |  |  | (0.025-0.05) μg/ml | (0.025-0.05) μg/ml | (0.013-0.05) μg/ml | 0.033 ± 0.004 | 0.035 ± 0.004 | 0.031 ± 0.005 | (0.013-0.025) μg/ml | 0.022 ± 0.002 |
| spiramycin |  |  |  |  | (10-20) μg/ml | (10-20) μg/ml | (6.25-50) μg/ml | 15 ± 1.5 | 15.83 ± 1.49 | 25.52 ± 4.82 | (12.5-50) μg/ml | 25 ± 3.77 |

From US20030113385A1, “Use of combinations of active agents consisting of antimicrobially active substances and plant extracts containing terpene in veterinary medicine” (Boehringer Ingelheim Vetmedica GmbH, priority 1998, published 2003)
